Reference: patent US6814960B1, “Hydroxystilbene compounds used as microbicidal active substances” (Ciba Specialty Chemicals Corporation, priority 1998, dated 2004)

Assays:
Test in all cases: MIC value in microtitre plates (optical density)
Assay type in all cases: cell-based
[1] = system: Staphylococcus hominis DSM 20328; settings: microtitre plate, CASO bouillon, 48 hours at 37° C., optical density 620 nm, ≦20% growth; some data indicative values
Protocol: (§1) Determination of the Minimum Inhibiting Concentration (MIC Value) in Microtitre Plates
(§2) Casein/soybean flour peptone bouillon for the preparation of the precultures of the test bacteria and yeast.
(§3) Mycological slant agar for the preculture of moulds.
(§4) Examples of Test Organisms
(§5) The test substances are predissolved in dimethyl sulfoxide (DMSO) and tested in a serial dilution of 1:2.
(§6) Bacteria and yeast are cultured overnight in CASO bouillon, the mould on mycological slant agar and rinsed off with 10 ml of 0.85% sodium chloride solution (+0.1% TritonX-100).
(§7) All test organisms are adjusted to an organism count of 1.5×10^6 CFU/ml with 0.85% sodium chloride solution.
(§8) The test substances are prepipetted into microtitre plates in an amount of 8 μl per well.
(§9) Previously diluted organism substances are diluted 1:100 in CASO bouillon (bacteria and yeast) and Sabouraud 2% glucose bouillon (mould) and added to the test substances in an amount of 192 μl per well.
(§10) The test batches are incubated for 48 hours at 37° C. (bacteria and yeast) or for 5 days at 28° C. (mould).
(§11) After incubation, the growth is determined by reference to the turbidity of the test batches (optical density) at 620 nm in a microplate reader.
(§12) The minimum inhibiting concentration (MIC value) is the concentration of substance at which (compared with the growth control) an appreciable inhibition of the growth (≦20% growth) of the test organisms is ascertained.
(§13) One microtiter plate is used for each test organism and substance concentration. All substances tested in duplicate.

[2] = system: Escherichia coli NCTC 8196; settings: microtitre plate, CASO bouillon, 48 hours at 37° C., optical density 620 nm, ≦20% growth; some data indicative values
Protocol: as §1, §2, §3, §4, §5, §6, §7, §8, §9, §10, §11, §12, §13

[3] = system: Pseudomonas aeruginosa CIP A-22; settings: microtitre plate, CASO bouillon, 48 hours at 37° C., optical density 620 nm, ≦20% growth; some data indicative values
Protocol: as §1, §2, §3, §4, §5, §6, §7, §8, §9, §10, §11, §12, §13

[4] = system: Aspergillus niger ATCC 6275; settings: microtitre plate, Sabouraud 2% glucose bouillon, 5 days at 28° C., optical density 620 nm, ≦20% growth; some data indicative values
Protocol: as §1, §2, §3, §4, §5, §6, §7, §8, §9, §10, §11, §12, §13

[5] = system: Candida albicans ATCC 10231; settings: microtitre plate, CASO bouillon, 48 hours at 37° C., optical density 620 nm, ≦20% growth; some data indicative values
Protocol: as §1, §2, §3, §4, §5, §6, §7, §8, §9, §10, §11, §12, §13

| SMILES | MIC values S. heminis [1] | MIC values E. coli [2] | MIC values P. aeruginosa [3] | MIC values A. niger [4] | MIC values C. albicans [5] |
| --- | --- | --- | --- | --- | --- |
| Oc1ccc(/C=C/c2ccccc2)cc1 [Comp. of formula 107] | 100 ppm | >100 ppm | >100 ppm | 100 ppm | >100 ppm |
| COc1ccc(/C=C/c2ccccc2)cc1O [Comp. of formula 109] | >100 ppm | >100 ppm | >100 ppm | 100 ppm | >100 ppm |
| CCOc1cc(/C=C/c2ccccc2)ccc1O [Comp. of formula 110] | >100 ppm | >100 ppm | >100 ppm | >100 ppm | >100 ppm |
| COc1cc(/C=C/c2ccccc2)ccc1O [Comp. of formula 111] | >100 ppm | >100 ppm | >100 ppm | 100 ppm | >100 ppm |
| Oc1ccccc1/C=C/c1ccccc1 [Comp. of formula 113] | 100 ppm | 100 ppm | >100 ppm | 60 ppm | 60 ppm |
| COc1cc(/C=C/c2ccccc2)cc(O)c1OC [Comp. of formula 114] | >100 ppm | 100 ppm | >100 ppm | 100 ppm | >100 ppm |
| Cc1cccc(/C=C/c2ccccc2)c1O [Comp. of formula 116] | 60 ppm | 60 ppm | 100 ppm | 60 ppm | 60 ppm |
| Oc1ccc(/C=C/c2ccc(Cl)cc2)cc1 [Comp. of formula 119] | 7.5 ppm | >100 ppm | >100 ppm | 100 ppm | 15 ppm |
| Oc1cccc(/C=C/c2ccc(Cl)cc2)c1 [Comp. of formula 120] | 7.5 ppm | 7.5 ppm | >100 ppm | 30 ppm | 7.5 ppm |
| COc1ccc(/C=C/c2ccc(Cl)cc2)cc1O [Comp. of formula 121] | >100 ppm | >100 ppm | >100 ppm | >100 ppm | >100 ppm |
| CCOc1cc(/C=C/c2ccc(Cl)cc2)ccc1O [Comp. of formula 122] | >100 ppm | >100 ppm | >100 ppm | >100 ppm | >100 ppm |
| COc1cc(/C=C/c2ccc(Cl)cc2)ccc1O [Comp. of formula 123] | >100 ppm | >100 ppm | >100 ppm | 100 ppm | >100 ppm |
| Oc1ccccc1/C=C/c1ccc(Cl)cc1 [Comp. of formula 125] | 60 ppm | 15 ppm | 100 ppm | 60 ppm | 60 ppm |
| COc1cc(/C=C/c2ccc(Cl)cc2)cc(O)c1OC [Comp. of formula 126] | >100 ppm | >100 ppm | >100 ppm | 100 ppm | 100 ppm |
| Cc1cccc(/C=C/c2ccc(Cl)cc2)c1O [Comp. of formula 128] | >100 ppm | >100 ppm | >100 ppm | 100 ppm | >100 ppm |
